Measured values reported in US9556217B2, “Amphiphilic compounds” (WISCONSIN ALUMNI RESEARCH FOUNDATION, priority 2012, dated 2017).

Legend:
[1] = test system: leucine transporter (LeuT); assay: LeuT functional assay ([3H]-Leu binding, SPA); assay type: biochemical, Aquifex aeolicus; details: CMC+0.04 wt % or CMC+0.2 wt %
Protocol: The new amphiphiles were then evaluated for the ability to maintain the leucine transporter (LeuT) from Aquifex aeolicus in a functional state (Quick and Javitch, Proc. Natl. Acad. Sci. USA 2007, 104, 3603-3608). The transporter was initially extracted with DDM and then diluted with amphiphile-containing solutions to generate amphiphile concentration of CMC+0.04 wt % or CMC+0.2 wt %. At both concentrations, GDN was very effective at maintaining LeuT activity, as indicated by binding of radiolabeled leucine, with preservation of >95% of initial activity after 12 days (FIG. 5c).
LeuT functionality was measured according to the procedure reported by Chae and coworkers (Nat. Methods 2010, 7, 1003-1008).
LeuT activity was measured according to the reported procedure (Chae et al., J. Am. Chem. Soc. 2010, 132, 16750-16752). […] Following protein storage at RT, at the indicated time points, samples were centrifuged and the protein concentration was assessed by determining absorbance at 280 nm. Concomitantly, for the corresponding time points, [^3H]-Leu binding was measured using scintillation proximity assay (SPA). […] Binding was assessed in 200 mM NaCl in the presence of tested compounds at the above-mentioned concentrations, and monitored using MicroBeta liquid scintillation counter (PerkinElmer).

[2] = test system: LHI-RC superassembly; assay: Extraction of LHI-RC superassembly from membranes; parameters: species or system R. capsulatus; details: 2 wt % GDN
Protocol: The favorable MelB extraction performance of GDN led to the examination of this amphiphile for extraction of other IMPs. […] DDM and GDN were used to extract a CMP-Sia fusion protein bearing green fluorescent protein (GFP) at the C-terminus, after expression in Saccharomyces cerevisiae; the amount of solubilized protein was estimated by total fluorescence. GDN (2 wt %), DDM (1 wt %) and OG (1 wt %) gave ˜70%, ˜80% and ˜50% extraction yields, respectively.
The procedure was performed according to the protocol reported by Chae and coworkers (Nat. Methods 2010, 7, 1003-1008).
The solubilization and stability of the R. capsulatus superassembly were assessed according to the published protocol (Chae et al., J. Am. Chem. Soc. 2010, 132, 16750-16752). Briefly, specialized photosynthetic membranes obtained from an engineered strain of Rhodobacter (R.) capsulatus, U43[pUHTM86Bgl], lacking the LHII light-harvesting complex, were used. Solubilization of the LHI-RC superassembly began by thawing, homogenizing, and incubating frozen aliquots of R. capsulatus membranes at 32° C. for 30 min. Subsequent 30-min incubation was performed after adding DDM or LDAO at 1.0 wt % or GDN at 2.0 wt % in the solid form. […] To assess solubilization efficiency, UV-Vis spectra of the solubilized protein solutions were measured in a range of 650˜950 nm.

| SMILES | Maintaining LeuT activity over 12 days ([1]; RT) | LHI-RC superassembly extraction compared with 1 wt % DDM [2] | LeuT activity preserved, % of initial activity ([1]; after 12 days at RT) [%] |
| --- | --- | --- | --- |
| CCCCCCCCCCCCO[C@@H]1O[C@H](CO)[C@@H](O[C@H]2O[C@H](CO)[C@@H](O)[C@H](O)[C@H]2O)[C@H](O)[C@H]1O [DDM, dodecyl-β-D-maltoside, reference compound] | lost significant activity |  |  |
| C[C@@H]1CC[C@@]2(OC1)O[C@H]1C[C@H]3[C@@H]4CC=C5C[C@@H](OCCC(CO[C@@H]6OC(CO)[C@@H](O[C@H]7OC(CO)[C@@H](O)C(O)C7O)C(O)C6O)CO[C@@H]6OC(CO)[C@@H](O[C@H]7OC(CO)[C@@H](O)C(O)C7O)C(O)C6O)CC[C@]5(C)[C@H]4CC[C@]3(C)[C@@H]1[C@@H]2C (stereo partly drawn) [GDN, glyco-diosgenin] |  | Comparable results | > 95 |
